Literature values in patent publication US20130143829A1, “Topical Combination Formulations of Macrocyclic Lactones with Synthetic Pyrethroids” (priority 2011, published 2013).

Settings: in vivo

eprinomectin
Milk to plasma partition ratio: ~0.2
